Measured values reported in ChEMBL document CHEMBL5505982, “Design, synthesis, biological evaluation and in silico studies of novel quinoline derivatives as potential radioprotective molecules targeting the TLR2 and p53 pathways” (Eur J Med Chem, 2024).
Active and inactive are the calls of the source. No cut-off for these calls is given here.

Experiments:
AHH-1 [1] = experiment: Anti-iradiation activity against human AHH-1 cells assessed as cell viability at 10 micromol preincubated with compound for 24 hrs followed by irradiation with 8 Gy and measured after 24 hrs by CCK-8 assay; type: functional; conditions: dose 10 µmol; time 48 hrs
Mus musculus [2] = experiment: Radioprotective activity in irradiated C57BL/6J mouse model assessed as increase in WBC count at 300 mg/kg, ip preincubated with compound for 15 to 1440 mins followed by irradiation with 6.5 Gy and measured on day 1 (reference value: 43.39%); type: functional; conditions: time 15-2880 min
Mus musculus [3] = experiment: Radioprotective activity in irradiated C57BL/6J mouse model assessed as increase in WBC count at 300 mg/kg, ip preincubated with compound for 15 to 1440 mins followed by irradiation with 6.5 Gy and measured after 10 to 13 days of radiation relative to Ex-RAD/control; type: functional, organism-based
Mus musculus [4] = experiment: Radioprotective activity in irradiated C57BL/6J mouse model assessed as increase in HGB count at 300 mg/kg, ip preincubated with compound for 15 to 1440 mins followed by irradiation with 6.5 Gy and measured after 1 to 10 days of radiation; type: functional, organism-based
Mus musculus [5] = experiment: Radioprotective activity in C57BL/6J mouse model assessed as upregulation of IL-6 expression at 300 mg/kg, ip measured after 2 hrs of 7.5 Gy radiation by ELISA analysis; type: functional, organism-based
Mus musculus [6] = experiment: Radioprotective activity in C57BL/6J mouse model assessed as upregulation of IL-12 expression at 300 mg/kg, ip measured after 2 hrs of 7.5 Gy radiation by ELISA analysis; type: functional, organism-based
AHH-1 [7] = experiment: Induction of apoptosis in human AHH-1 cells assessed as viable cells preincubated with compound for 24 hrs followed by irradiation with 4 Gy and measured after 24 hrs of radiation by Annexin V-FITC/PI staining based flow cytometry analysis (reference value: 66.9 %); type: functional; conditions: time 48 hrs
AHH-1 [8] = experiment: Induction of apoptosis in human AHH-1 cells assessed as late apoptotic cells preincubated with compound for 24 hrs followed by irradiation with 4 Gy and measured after 24 hrs of radiation by Annexin V-FITC/PI staining based flow cytometry analysis (reference value: 17.7%); type: functional; conditions: time 48 hrs
AHH-1 [9] = experiment: Induction of apoptosis in human AHH-1 cells assessed as early apoptotic cells preincubated with compound for 24 hrs followed by irradiation with 6 Gy and measured after 24 hrs of radiation by Annexin V-FITC/PI staining based flow cytometry analysis (reference value: 14.1%); type: functional; conditions: time 48 hrs
AHH-1 [10] = experiment: Induction of apoptosis in human AHH-1 cells assessed as necrotic cells preincubated with compound for 24 hrs followed by irradiation with 6 Gy and measured after 24 hrs of radiation by Annexin V-FITC/PI staining based flow cytometry analysis (reference value: 3.71%); type: functional; conditions: time 48 hrs
AHH-1 [11] = experiment: Induction of apoptosis in human AHH-1 cells assessed as early apoptotic cells preincubated with compound for 24 hrs followed by irradiation with 8 Gy and measured after 24 hrs of radiation by Annexin V-FITC/PI staining based flow cytometry analysis (reference value: 16.5%); type: functional; conditions: time 48 hrs
AHH-1 [12] = experiment: Radioprotective activity against human AHH-1 cells assessed as decrease in p53 expression pretreated with compound for 24 hrs in presence of ionizing irradiation by Western blotting analysis; type: functional, cell-based

For [O-][S+](Cc1ccc(F)cc1)c1ccc2cc(Br)ccc2n1 (configuration not stated), the Activity (AHH-1 [1]) was 55.86%, the Activity (Mus musculus [2]) was 38.66% and the Activity (Mus musculus [3]) was “Active”. For the same compound, the Activity (Mus musculus [4]) was “inactive”, the Activity (Mus musculus [5]) was “Active” and the Activity (Mus musculus [6]) was “Active”. The Activity (AHH-1 [7]) was 72.4%, the Activity (AHH-1 [8]) was 12.2% and the Activity (AHH-1 [9]) was 13.7%. The Activity (AHH-1 [10]) was 2.55%, the Activity (AHH-1 [11]) was 10.8% and the Activity (AHH-1 [12]) was “Active”.
